Earlier results as cited in patent US10208167B2, “Cyclodextrins with one or more poly(ethylene glycol) units, inclusion compounds and drug delivery vehicles including the same, and methods of making and using the same” (The Board of Trustees of the California State University, priority 2015, dated 2019).

Key:
[1] = test system: human salivary and pancreatic amylases
[2] = test system: intestinal microflora

SMILES	hydrolysis by human salivary and pancreatic amylases [1]	fermentation in the intestinal microflora [2]
OC[C@H]1O[C@@H]2O[C@H]3[C@H](O)[C@@H](O)[C@@H](O[C@H]4[C@H](O)[C@@H](O)[C@@H](O[C@H]5[C@H](O)[C@@H](O)[C@@H](O[C@H]6[C@H](O)[C@@H](O)[C@@H](O[C@H]7[C@H](O)[C@@H](O)[C@@H](O[C@H]1[C@H](O)[C@H]2O)O[C@@H]7CO)O[C@@H]6CO)O[C@@H]5CO)O[C@@H]4CO)O[C@@H]3CO [α-CD, α-cyclodextrin]	not hydrolyzed	can be fermented
OC[C@H]1O[C@@H]2O[C@H]3[C@H](O)[C@@H](O)[C@@H](O[C@H]4[C@H](O)[C@@H](O)[C@@H](O[C@H]5[C@H](O)[C@@H](O)[C@@H](O[C@H]6[C@H](O)[C@@H](O)[C@@H](O[C@H]7[C@H](O)[C@@H](O)[C@@H](O[C@H]8[C@H](O)[C@@H](O)[C@@H](O[C@H]9[C@H](O)[C@@H](O)[C@@H](O[C@H]1[C@H](O)[C@H]2O)O[C@@H]9CO)O[C@@H]8CO)O[C@@H]7CO)O[C@@H]6CO)O[C@@H]5CO)O[C@@H]4CO)O[C@@H]3CO [γ-CD, γ-cyclodextrin]	not hydrolyzed	–
